For 88 molecules, melting point results are on record in a melting point compilation (Tetko et al.; mined from patent text by program, amines drawn as free bases though some values may be those of a salt).

Bounds are passed on as bounds.

As usually defined, the melting point is the temperature of the solid-liquid transition. As for `CS(=O)(=O)c1ccc(/C(=C(\CC(=O)O)C(=O)O)c2ccc(Cl)cc2)cc1`, the melting point lay in the range of 199 to 200 °C.

In turn, `CN1CCCC(COc2ccc(C(=O)NN)cc2)C1` (stereo not drawn) yielded a melting point of 170 to 172 °C.

`CCOC(=O)[C@H](CCC1CCCCC1)N[C@H]1COc2ccccc2N(CC(=O)O)C1=O` showed a melting point of 135 to 139 °C.

With `COc1ccc(OC)c(C(=O)CC(CC(=O)c2ccc(Cl)cc2)c2cccc(C(=O)O)c2)c1` (stereo not drawn), the melting point fell in the range of 164 to 165 °C.

Regarding `COc1ccc(C(NCC(C)c2ccccc2)c2cccc(Nc3c(N)c(=O)c3=O)c2)cc1` (stereo not drawn), the melting point was 192 to 194 °C.

Take `O=C(Oc1ccc(OC(=O)c2ccccc2)c(-c2ccccc2)c1)c1cc(O)c(O)c(O)c1`: the melting point was in the range of 82 to 84 °C.

In turn, `CN1CCC(NC(c2cccc(C#CCCCCN)c2)c2nc3ccccc3[nH]2)CC1` (stereo not drawn) showed a melting point of 79 °C.

Molecule `CCOC(=O)NN(CCO)c1ccc(-c2ccc(Cl)cc2)nn1` displayed a melting point of 152 to 154 °C.

Turning to `COc1cc(-c2c(Cl)c(CNC(C)(C)C)nc3sc4c(c23)CCNC4)ccc1OC(C)C`, the melting point fell in the range of 157 to 158 °C.

`COC(=O)C(=CNC1CC1)C(=O)c1cc(F)c(Cl)cc1Cl` registered a melting point of 150 to 151 °C.

Molecule `OC(CSc1ncccn1)CN1CCN(C(c2ccc(F)cc2)c2ccc(F)cc2)CC1` (stereo not drawn) came in with a melting point of 75 to 76 °C.

`N#CC(N)=C(C#N)N=Cc1cnn(-c2c(Cl)cc(OC(F)(F)F)cc2Cl)n1` displayed a melting point of 199 to 201 °C.

For `Cc1c(C)c2c(c(C)c1OCc1ccccc1)C(c1ccc(C(C)C)cc1)C(C)(C)O2` (stereo not drawn), the melting point lay within 79 to 81 °C.

Molecule `O=CCC1Cc2ccc(Br)cc2C1=O` (racemic) yielded a melting point of 84 °C.

With `O=C(Nc1ccc(Oc2ccnc(N3CCCC3)n2)c2ccccc12)c1ccccc1N1CCCC(F)C1` (stereo not drawn), the melting point was 111 to 113 °C.

Molecule `O=C(NC1CCCOC1)c1ccc2nonc2c1` (stereo not drawn) came in with a melting point of 204 to 205 °C.

Take `CCOC(=O)Cc1ccc(NC(=O)N2CCn3c(c(C(N)=O)c(C#N)c3C3CC3)C2)cc1`: the melting point is 263 to 264 °C.

`CC(C)Oc1n[nH]c(=O)n1C` registered a melting point of 142 °C.

As for `C[C@H]1CCCC(C)(C)[C@]1(C)C(=O)c1ccc(F)cc1`, the melting point lay within 49 to 51 °C.

Consider `CCOC(=O)C(C(=O)OCC)N1CS(=O)c2c(C)cc([N+](=O)[O-])cc21` (stereo not drawn), for which the melting point was 97 °C.

`COc1ccc(N(C(=O)CN2C(=O)CC(=O)N(c3ccncc3)c3ccccc32)C(C)C)cc1` returned a melting point of 211 to 213 °C.

With `O=Cc1cc2cc(Cl)c(Cl)cc2[nH]1`, the melting point fell in the range of 188 to 190 °C.

`CC1(C)Oc2ccc(C#N)cc2[C@@H](NC(=NC#N)N2CCCC2)[C@@H]1O` (relative stereo) gave a melting point of 263 to 264 °C.

In the case of `CCOCn1nccc1C(O)c1ccc(O)c(Cl)c1Cl` (stereo not drawn), the melting point stood at 150 °C.

In turn, `COc1cc2c(cc1OC)C(=O)CCCS2` yielded a melting point of 128 to 129 °C.

In turn, `OC1CSC(Oc2cc(-c3cncnc3)cc(F)c2F)C(O)C1O` (stereo not drawn) came in with a melting point of 191 °C.

In the case of `O=C1CCC(N2Cc3c(OCc4ccc(CNCCO)cc4)cccc3C2=O)C(=O)N1` (stereo not drawn), the melting point is 251 to 253 °C.

`CN(C)CCNC(=O)c1nc(N)sc1-c1ccccn1` returned a melting point of 143 to 144 °C.

`O=C1Nc2cc(Cl)ccc2Sc2ccccc21` displayed a melting point of 163 to 165 °C.

The molecule `O=CN1CC(CCN2CC=C(c3c[nH]c4cc(Cl)ccc34)CC2)c2ccccc21` (stereo not drawn) registered a melting point of 183 to 185 °C.

With `CS(=O)(=O)N1CCC(C2=C(C#N)C(c3cccc(C#N)c3Br)c3c[nH]nc3N2)CC1` (stereo not drawn), the melting point is over 280 °C.

Regarding `CC(C)(C)OC(=O)NNC(=O)c1ccc(O)c(O)c1`, the melting point was 148 °C.

As for `CCOC(=O)C1=COc2ccc(O)cc2O1`, the melting point is 160 °C.

In the case of `CC1(C)CCC(C)(C)c2cc(NC(=O)c3ccc(C(=O)O)cn3)ccc21`, the melting point fell in the range of 206 to 207 °C.

The molecule `CN(C)CCNC(=S)SC(C)(C)[C@H](NC(=O)c1ccc(Cl)cc1)C(=O)O` showed a melting point of 142 to 143 °C.

In turn, `O=C(c1ccc2[nH]cnc2c1)N1CCC[C@H](c2nc(-c3ccc(F)cc3)no2)C1` registered a melting point of 110 to 115 °C.

For the molecule `O=C(C=C(c1ccccc1)c1ccccc1)Nc1ccc(C(=O)O)cc1`, the melting point lay in the range of 222 to 224 °C.

`CC(C)c1nn2ccccc2c1SC#N` returned a melting point of 91 to 92.5 °C.

Take `CCCc1nc2c(N)nc3cc(-c4ccccc4C(N)=O)ccc3c2s1`: the melting point lay within 274 to 276 °C.

Take `CCCCCCCCCCCCCCC/C=C/C=O`: the melting point turned out to be 35 °C.

`O=C1NC(CCO)CO1` (stereo not drawn) registered a melting point of 90 to 91 °C.

In the case of `Nc1cc(=O)nc(Nc2ccccc2)n1-c1ccc(Cl)cc1`, the melting point lay in the range of 216 to 222 °C.

For `CCOC(=O)[C@H](C)Nc1c(C)cc(C)cc1C`, the melting point is 81 to 83 °C.

In the case of `CCc1nc2c(C)nc(C)cc2n1-c1ccc(CCNC(=O)NS(=O)(=O)c2ccc(C)cc2)cc1`, the melting point came out at 143 °C.

In the case of `CS(=O)(=O)NC1CCCc2ccc([N+](=O)[O-])cc21` (stereo not drawn), the melting point was 150 to 152 °C.

The molecule `CNC(=O)NC1CCCc2sccc21` (stereo not drawn) came in with a melting point of 183 to 186 °C.

On to `N#Cc1ncc(F)cc1O`, for which the melting point turned out to be 201 °C.

In turn, `CC(C)Oc1cc(Oc2ccc(C(F)(F)F)cn2)ccc1CCCOc1cc(CCC(=O)O)n(-c2ccccc2)n1` registered a melting point of 130 °C.

In turn, `OCCOc1ccc2cc[nH]c2c1` registered a melting point of 74 to 77 °C.

As for `Cc1n[nH]c(-c2ccc(Br)cc2)c1NC(=O)c1ccccc1`, the melting point lay within 273 to 274 °C.

`Cc1ccc(C)n1-c1ccc(C2(C#N)CCCC2)cc1` yielded a melting point of 117 to 120 °C.

`Cc1nc(C(N)=O)c2n1-c1ccc(Cl)cc1C(c1ccccc1)=NC2` returned a melting point of 335 to 340 °C.

In turn, `Cc1ccc(-c2n[nH]cc2-c2ccnc(Cl)n2)cc1` came in with a melting point of 194 to 197 °C.

Turning to `COc1c(N)nc(Cl)nc1Cl`, the melting point was 155 to 156 °C.

Turning to `CC1(C)C2CC[C@]1(C)C(=O)C(C(=O)Nc1ccc([N+](=O)[O-])cc1)C2=O` (stereo partly drawn), the melting point was in the range of 168 to 170 °C.

`O=C(OC(c1ccc(Cl)c2nc3n(c12)CCCN3c1ccc(Cl)cc1Cl)C1CC1)C1CC1` (stereo not drawn) yielded a melting point of 168 to 170 °C.

As to `CCOC(=O)C(N)=Cc1ccc(OCC(O)CNC(C)(C)C)cc1` (stereo not drawn), the melting point was 99 to 100 °C.

The molecule `Nc1ncnc2c1ncn2OCC/C=C/P(=O)(O)O` displayed a melting point of 238 °C.

Molecule `CNC(=O)N1N=C(c2ccc([N+](=O)[O-])c(C)c2)c2cc(Cl)ccc2C=C1C` displayed a melting point of 196 to 198 °C.

In the case of `CCCc1c(OCCCCCOc2ccccc2CCC(=O)O)ccc2c1OCCC2=O`, the melting point was in the range of 75 to 76 °C.

For the molecule `C#CCc1cc(C(O)=S)cc(N)c1Oc1ccccc1`, the melting point is 167 to 168 °C.

Consider `Cc1cc(C(O)(C(F)(F)F)C(F)(F)F)cc(C)c1OCC(N)=O`, for which the melting point lay within 180 to 182 °C.

The molecule `COc1ccc(C(=O)N2CCCC2=O)cc1OC(=O)c1ccccc1` displayed a melting point of 90.5 to 91 °C.

`O=[N+]([O-])c1ccc(C2=NNC(=S)Cc3cc4c(cc32)OCO4)cc1`: the melting point was 257 to 258 °C.

On to `CN(C(=O)C(C)(C)c1cc(C(C)(C)C)c(O)c(C(C)(C)C)c1)C1CC(C)(C)NC(C)(C)C1`, for which the melting point was in the range of 168 to 173 °C.

The molecule `CC(=NO)c1ccc(C(F)(F)C(F)(F)c2ccccc2)cc1` gave a melting point of 137 to 139 °C.

The molecule `COc1ccc(CN2CC(COC(c3ccccc3)(c3ccccc3)c3ccccc3)CC2=O)cc1` (stereo not drawn) displayed a melting point of 171 to 173 °C.

`COc1cc(CC#N)c([N+](=O)[O-])cc1C(F)(F)F` showed a melting point of 103 to 104 °C.

`COc1ccc(S(=O)(=O)c2c(C(C)C)n(C)c3ccccc23)cc1`: the melting point is 125 °C.

`Cc1cc(OC(C)(C)C(=O)O)c(C)c(Br)c1C` came in with a melting point of 151 to 153 °C.

`Clc1ccc(C#Cc2c3ccccc3c(C#Cc3ccc(Cl)cc3)c3ccccc23)cc1`: the melting point amounted to 268 °C.

Consider `Cc1c(F)cccc1C(=O)Nc1ccc(C(=O)N2CCCC(=O)c3sccc32)cc1`, for which the melting point lay in the range of 200 to 202 °C.

`CC(C)(C)c1cc(OC(=O)N2CC(O)C2)cc(C(C)(C)C)c1` registered a melting point of 166 to 170 °C.

`FC(F)(F)c1cc(Cl)c(-c2nc(Br)c(Br)[nH]2)c(Cl)c1` registered a melting point of 328 to 329 °C.

Consider `OC(Cn1cncn1)(c1ccc(Cl)cn1)c1ccc(Cl)cc1Cl` (stereo not drawn), for which the melting point fell in the range of 149 to 150 °C.

In the case of `CCCCc1cc(Cn2cnc3c(N)nc4ccccc4c32)no1`, the melting point was 201 to 203 °C.

On to `COc1ccc(C(=O)Nc2ccc(N3CCC(NC[C@H](O)COc4ccc(O)cc4)CC3)cc2)cc1OC`, for which the melting point fell in the range of 77 to 84 °C.

`O=C(O)c1ccccc1C=Cc1ccc(-c2cc3ccc4ccccc4c3o2)cc1`: the melting point lay within 210 to 211 °C.

In the case of `Cc1cccnc1-c1cncc(OC2SCC(O)C(O)C2O)c1` (stereo not drawn), the melting point is 162 to 175 °C.

On to `COc1ccc(C(=O)Nc2ccccc2)cc1NS(=O)(=O)c1cc(Cl)cc(Cl)c1`, for which the melting point lay in the range of 222 to 228 °C.

Regarding `BrCCCCCCC1(CCCCCCBr)c2cc(Br)ccc2-c2ccc(Br)cc21`, the melting point came out at 68 °C.

`O=C(O)COc1cccc2c1Cc1sc(S(=O)(=O)CCC(c3ccccc3)c3ccccc3)nc1-2` had a melting point of 131 to 133 °C.

As for `CN1C(c2ccc(Br)cc2)C2C(=O)N(Cc3ccc4c(c3)OCO4)C(=O)C2C1(C)C` (stereo not drawn), the melting point is 109 to 111 °C.

In turn, `CCN(CC)c1ccc(NC(=O)N(C[C@H]2CC[C@H](CN(C(=O)Nc3ccc(N(CC)CC)cc3)C3CCCCCC3)CC2)C2CCCCCC2)cc1` registered a melting point of 170 to 175 °C.

`Cc1ncc(CN2CCc3cc(-c4cc(Cl)cc(Cl)c4)ccc3C2)c(N)n1`: the melting point is 205 to 211 °C.

The molecule `CNC(=O)c1ccc(C=CC(=O)NCC(=O)N(C)c2ccc(C)c(COc3cccc4c3nc(S)n4C)c2C)cc1` had a melting point of 278 to 292 °C.

Consider `CCOC(=O)CNc1ccc(OCc2ccccc2)cc1`, for which the melting point came to 70 °C.

Molecule `COCCOC1=CC(=O)C(Nc2ncnc3cc(OCCOC)c(OC)cc23)=CC1=O` returned a melting point of 211 to 212 °C.
